Here are results for 25 compounds from US9255100B2 (BAYER INTELLECTUAL PROPERTY GMBH, priority 2010, dated 2016).

SMILES strings stand for the structures. Bounds are passed on as bounds.

The target in this assay is T1, N-terminally GST-tagged human full length recombinant Mps-1 kinase (Homo sapiens, UniProt P33981).
T1 construct: N-terminally GST-tagged human full length recombinant Mps-1 kinase; purchased Invitrogen, Karslruhe, Germany PV4071
T1 sequence (P33981 1-857): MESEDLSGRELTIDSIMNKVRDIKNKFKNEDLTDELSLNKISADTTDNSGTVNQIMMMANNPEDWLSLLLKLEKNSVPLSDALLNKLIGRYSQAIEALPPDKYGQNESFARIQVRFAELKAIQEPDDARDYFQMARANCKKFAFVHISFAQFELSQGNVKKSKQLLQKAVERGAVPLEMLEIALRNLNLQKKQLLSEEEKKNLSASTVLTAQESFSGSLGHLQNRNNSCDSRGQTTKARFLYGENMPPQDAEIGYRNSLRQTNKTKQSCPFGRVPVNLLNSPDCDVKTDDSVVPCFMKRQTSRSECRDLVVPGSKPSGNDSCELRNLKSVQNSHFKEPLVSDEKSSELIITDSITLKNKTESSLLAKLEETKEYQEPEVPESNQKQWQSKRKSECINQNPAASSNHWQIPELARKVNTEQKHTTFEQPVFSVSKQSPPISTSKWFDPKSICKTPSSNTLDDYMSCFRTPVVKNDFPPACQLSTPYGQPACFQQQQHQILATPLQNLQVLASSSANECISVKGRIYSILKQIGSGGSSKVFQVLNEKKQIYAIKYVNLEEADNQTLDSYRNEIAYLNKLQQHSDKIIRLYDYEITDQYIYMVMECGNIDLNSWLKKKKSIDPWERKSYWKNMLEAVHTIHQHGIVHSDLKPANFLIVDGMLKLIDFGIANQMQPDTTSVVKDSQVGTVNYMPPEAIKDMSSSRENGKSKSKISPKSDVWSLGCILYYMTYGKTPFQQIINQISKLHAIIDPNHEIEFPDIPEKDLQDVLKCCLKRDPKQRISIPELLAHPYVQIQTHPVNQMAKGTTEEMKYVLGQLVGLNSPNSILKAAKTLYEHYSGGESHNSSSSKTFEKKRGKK
Kind of assay: Mps-1 kinase assay (TR-FRET). In kind it is biochemical. The conditions noted are these: Mps1 IC50 [nM], 10 μM ATP, 1 μM peptide substrate, 60 min at 22° C. The essentials: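 Compounds were tested against recombinant full-length Mps-1 bearing an N-terminal GST tag, about 1 nM final, with a biotinylated amide-capped peptide as substrate. Detection reagents were then bound for 1 h at 22° C and the product read by TR-FRET.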
(In general: Time-resolved FRET reads energy transfer from a long-lived donor to a nearby acceptor.)
Turning to `CC(C)CNc1cc(-c2ccc(-c3ccccc3)cc2)nn2c(-c3ccc(C(=O)NC4CC4)cc3)cnc12` [Example 130, 4-{6-(Biphenyl-4-yl)-8-[(2-methylpropyl)amino]imidazo[1,2-b]pyridazin-3-yl}-N-cyclopropylbenzamide], the half-maximal inhibitory concentration (IC50) (commonly the concentration needed to halve the response being measured) came out at 5.9 nM.
With `COc1ccccc1Nc1cc(NCCC(F)(F)F)c2ncc(-c3ccc(C(=O)NC4CC4)c(C)c3)n2n1` [Example 388, N-cyclopropyl-4-{6-[(2-methoxyphenyl)amino]-8-[(3,3,3-trifluoropropyl)amino]imidazo[1,2-b]pyridazin-3-yl}-2-methylbenzamide] the figure was 0.4 nM; with `Cc1cc(-c2cnc3c(NCC(O)C(F)(F)F)cc(-c4ccnn4C)nn23)ccc1C(=O)NC1CC1` (racemic) [Example 208, (RS)—N-cyclopropyl-2-methyl-4-{6-(1-methyl-1H-pyrazol-5-yl)-8-[(3,3,3-trifluoro-2-hydroxypropyl)amino]imidazo[1,2-b]pyridazin-3-yl}benzamide], 2 nM; with `Cc1cc(-c2cnc3c(NCC(C)(C)O)cc(-c4cnn(C)c4)nn23)ccc1C(=O)NC1CC1` [Example 154, N-cyclopropyl-4-{8-[(2-hydroxy-2-methylpropyl)amino]-6-(1-methyl-1H-pyrazol-4-yl)imidazo[1,2-b]pyridazin-3-yl}-2-methylbenzamide], 25 nM.
With `Cc1cc(-c2cnc3c(NCCC(F)(F)F)cc(Oc4ccc(Cl)cc4)nn23)ccc1C(=O)NC1CC1` [Example 267, 4-{6-(4-chlorophenoxy)-8-[(3,3,3-trifluoropropyl)amino]imidazo[1,2-b]pyridazin-3-yl}-N-cyclopropyl-2-methylbenzamide] the figure was 0.3 nM; with `Cc1cc(-c2cnc3c(NCC4CCC(F)(F)CC4)cc(Oc4cccc(F)c4)nn23)ccc1C(=O)NC1CC1` [Example 494, N-cyclopropyl-4-[8-{[(4,4-difluorocyclohexyl)methyl]amino}-6-(3-fluorophenoxy)imidazo[1,2-b]pyridazin-3-yl]-2-methylbenzamide], 0.3 nM; with `CNC(=O)c1ccc(-c2cnc3c(NCCC(F)(F)F)cc(Oc4ccc(OC)cc4F)nn23)cc1C` [Example 576, 4-{6-(2-fluoro-4-methoxyphenoxy)-8-[(3,3,3-trifluoropropyl)a-mino]imidazo[1,2-b]pyridazin-3-yl}-N,2-dimethylbenzamide], less than 1 nM.
With `CNc1cc(Oc2ccc(F)c(F)c2)nn2c(-c3ccc(C(=O)NC4CC4)c(C)c3)cnc12` [Example 529, N-cyclopropyl-4-[6-(3,4-difluorophenoxy)-8-(methylamino)imidazo [1,2-b]pyridazin-3-yl]-2-methylbenzamide] the figure was 0.4 nM; with `COc1cc(Nc2cc(NCC(C)(C)O)c3ncc(-c4ccc(C(=O)NC5CC5)c(C)c4)n3n2)ccc1F` [Example 400, N-cyclopropyl-4-{6-[(4-fluoro-3-methoxyphenyl)amino]-8-[(2-hydroxy-2-methylpropyl)amino]imidazo[1,2-b]pyridazin-3-yl}-2-methylbenzamide], 3.1 nM; with `COc1ccc(Oc2cc(NCCS(C)(=O)=O)c3ncc(-c4ccc(C(=O)NC5CC5)c(C)c4)n3n2)cc1F` [Example 518, N-cyclopropyl-4-[6-(3-fluoro-4-methoxyphenoxy)-8-{[2-(methylsulfonyl)ethyl]amino}imidazo [1,2-b]pyridazin-3-yl]-2-methylbenzamide], 0.1 nM.
In the case of `Cc1cc(-c2cnc3c(NCC(C)(C)O)cc(SC4CCCC4)nn23)ccc1C(=O)NC1CC1` [Example 336, 4-{6-(cyclopentylsulfanyl)-8-[(2-hydroxy-2-methylpropyl)amino]imidazo[1,2-b]pyridazin-3-yl}-N-cyclopropyl-2-methyl-benzamide], the IC50 worked out at 1 nM.
Regarding `Cc1cc(F)cc(Oc2cc(NCCCC(F)(F)F)c3ncc(-c4ccc(C(=O)NC5CC5)c(C)c4)n3n2)c1` [Example 452, N-cyclopropyl-4-{6-(3-fluoro-5-methylphenoxy)-8-[(4,4,4-trifluorobutyl)amino]imidazo[1,2-b]pyridazin-3-yl}-2-methylbenzamide], the IC50 was determined as 0.8 nM.
`Cc1cc(-c2cnc3c(NCC(C)(C)O)cc(Nc4ccccc4CO)nn23)ccc1C(=O)NC1CC1` [Example 434, N-cyclopropyl-4-(6-{[2-(hydroxymethyl)phenyl]amino}-8-[(2-hydroxy-2-methylpropyl)amino]imidazo[1,2-b]pyridazin-3-yl)-2-methylbenzamide]: the half-inhibitory concentration (IC50) was 1.3 nM.
Regarding `Cc1cc(-c2cnc3c(NC[C@H]4CCCO4)cc(-c4ccncc4)nn23)ccc1C(=O)NC1CC1` [Example 35, N-cyclopropyl-2-methyl-4-[6-(pyridin-4-yl)-8-{[(2R)-tetrahydrofuran-2-ylmethyl]amino}imidazo[1,2-b]pyridazin-3-yl]benzamide], the half-maximal inhibitory concentration (IC50) turned out to be 2.5 nM.
The same measure for `Cc1cc(-c2cnc3c(NCCC(F)(F)F)cc(Sc4ccc(F)cc4N)nn23)ccc1C(=O)NC1CC1` [Example 417, 4-{6-[(2-amino-4-fluorophenyl)sulfanyl]-8-[(3,3,3-trifluoropropyl)amino]imidazo[1,2-b]pyridazin-3-yl}-N-cyclopropyl-2-methylbenzamide]: 0.2 nM.
In the case of `Cc1cc(-c2cnc3c(NCCN4CCOCC4)cc(N(C)c4ccccc4O)nn23)ccc1C(=O)NC1CC1` [Example 539, N-cyclopropyl-4-(6-[(2-hydroxy-phenyl)(methyl)amino]-8-{[2-(morpholin-4-yl)ethyl]amino}imidazo[1,2-b]pyridazin-3-yl)-2-methylbenzamide], the IC50 is 0.2 nM.
The same measure for `Cc1cc(-c2cnc3c(NCCC(F)(F)F)cc(Nc4ccc(F)nc4)nn23)ccc1C(=O)NC1CC1` [Example 440, N-cyclopropyl-4-{6-[(6-fluoropyridin-3-yl)-amino]-8-[(3,3,3-trifluoropropyl)amino]imidazo[1,2-b]pyridazin-3-yl}-2-methylbenzamide]: 0.1 nM; for `Cc1ccc(F)c(Oc2cc(NCC(C)(C)O)c3ncc(-c4ccc(C(=O)NC5CC5)c(C)c4)n3n2)c1` [Example 81, N-cyclopropyl-4-{6-(2-fluoro-5-methylphenoxy)-8-[(2-hydroxy-2-methylpropyl)amino]imidazo[1,2-b]pyridazin-3-yl}-2-methylbenzamide]: 0.2 nM; for `Cc1cc(-c2cnc3c(NCC4CC(=O)N(C)C4)cc(Oc4cccc(F)c4)nn23)ccc1C(=O)NC1CC1` (stereo not shown) [Example 329, N-cyclopropyl-4-[6-(3-fluorophenoxy)-8-{[(1-methyl-5-oxopyrrolidin-3-yl)methyl]amino}imidazo [1,2-b]pyridazin-3-yl]-2-methylbenzamide]: less than 0.1 nM.
On to `Cc1cc(F)cc(Oc2cc(NCCC(F)(F)F)c3ncc(-c4ccc(C(=O)NC5CC5)c(C)c4)n3n2)c1` [Example 88, N-cyclopropyl-4-{6-(3-fluoro-5-methylphenoxy)-8-[(3,3,3-trifluoropropyl)amino]imidazo[1,2-b]pyridazin-3-yl}-2-methylbenzamide], for which the half-maximal inhibitory concentration (IC50) stood at 0.4 nM.
The same measure for `Cc1cc(-c2cnc3c(NCCC(F)(F)F)cc(S(=O)(=O)c4cccc(F)c4)nn23)ccc1C(=O)NC1CC1` [Example 83A, N-cyclopropyl-4-{6-[(3-fluorophenyl)sulfonyl]-8-[(3,3,3-trifluoropropyl)amino]imidazo[1,2-b]pyridazin-3-yl}-2-methylbenzamide]: 0.2 nM; for `Cc1cc(-c2cnc3c(NCC(C)C)cc(S(=O)(=O)c4ccccc4)nn23)ccc1C(=O)NC1CC1` [Example 198, N-cyclopropyl-2-methyl-4-{8-[(2-methylpropyl)amino]-6-(phenylsulfonyl)imidazo[1,2-b]pyridazin-3-yl}benzamide]: 2.6 nM; for `CC(C)(O)CNc1cc(-c2ccc(F)cc2)nn2c(-c3ccc(C(=S)NC4CC4)cc3)cnc12` [Example 32, N-cyclopropyl-4-{6-(4-fluorophenyl)-8-[(2-hydroxy-2-methylpropyl)amino]imidazo[1,2-b]pyridazin-3-yl}benzenecarbothioamide]: 4.3 nM.
With `Cc1cc(-c2cnc3c(NCCCC(F)(F)F)cc(Nc4cccc(F)c4F)nn23)ccc1C(=O)NC1CC1` [Example 450, N-cyclopropyl-4-{6-[(2,3-difluorophenyl)amino]-8-[(4,4,4-trifluorobutyl)amino]imidazo[1,2-b]pyridazin-3-yl}-2-methylbenzamide] the figure was 0.3 nM; with `Cc1cc(-c2cnc3c(NCCC#N)cc(Oc4cccc(F)c4)nn23)ccc1C(=O)NC1CC1` [Example 347, 4-{8-[(2-cyanoethyl)amino]-6-(3-fluorophenoxy)imidazo[1,2-b]pyridazin-3-yl}-N-cyclopropyl-2-methylbenzamide], 0.1 nM.
